Measurements from patent US20240261411A1, “PERMEATION ENHANCERS FOR GASTROINTESTINAL SYNTHETIC EPITHELIAL LININGS” (Syntis Bio, Inc., priority 2023, published 2024).

What was measured:
[1] = Franz cell permeability of semaglutide; conditions: Franz cells, porcine duodenal tissue
Experimental: Franz cells were used for testing different permeation enhancers on ex vivo tissue from the small intestine, such as porcine duodenal tissue (or colon tissue where indicated). Water pumps were attached to the Franz cell rack to maintain each Franz cell at 37° C. The racks were loaded with Franz cells, and each cell was filled with 5 mL of phosphate buffered saline. Tissue was cut into ˜3.2×3.2 cm squares and any large clumps of mucus or excrement was removed before mounting onto the Franz cells. Next, gastrointestinal synthetic epithelial lining (GSEL) solutions were prepared by first weighing out dopamine HCl, polydopamine, and a permeation enhancer into a vial. […] Samples from the receiving compartment was periodically collected from 0 to 24 hours and the concentration of API was measured. […]
The same experiment was carried out, except without using a permeation enhancer in the GSEL solution. The amount of API detected in the receiving compartment for GSELS with permeation enhancer was compared to the amount of API detected in the receiving compartment for GSELs without permeation enhancer at each time point to determine the increase in permeation provided by the permeation enhancer.

[2] = pig model, semaglutide pharmacokinetics after endoscopic placement or IV; design: species or system Yorkshire pigs; conditions: in vivo, 1.5 mg/kg
Excerpt: Yorkshire pigs, weighing 40-80 kg each over 7 months and approximately 4-9 months of age were used. Following routine preoperative fast, pigs were anesthetized, intubated, and maintained on isoflurane anesthesia during the procedure. An indwelling marginal ear vein catheter was be inserted for blood collection, which occurred over 1-7 days. Dry GSEL powders containing permeation enhancers and semaglutide were solubilized with Tris buffer immediately before administration. An endoscope guided catheter was placed into the proximal small intestines, where the GSEL suspensions were injected. Blood was taken periodically from the ear vein catheter and the blood was immediately centrifuged down in serum collection tubes. Samples were analyzed via ELISA and LC-MS. Pigs were woken up after 6 hours and monitored until full recovery.
For the following experiment, a ratio of formulation components as presented in Table E8 was used (e.g., 2×GSEL, 6.4 mg/kg GCA, 6.4 mg/kg NHCO, with semaglutide at a final ratio of 20:2.35 permeation enhancer to semaglutide).

absorption, in words [2] | Compound | semaglutide permeability, comparison in words [1]
– | O=C([O-])CCCCCCCNC(=O)c1ccccc1O.[Na+] [SNAC, sodium N-[8-(2-hydroxybenzoyl)amino]caprylate] | did not promote permeation of semaglutide as much
zero absorption | CC[C@H](C)[C@H](NC(=O)[C@H](Cc1ccccc1)NC(=O)[C@H](CCC(=O)O)NC(=O)[C@H](CCCCNC(=O)COCCOCCNC(=O)COCCOCCNC(=O)CC[C@H](NC(=O)CCCCCCCCCCCCCCCCC(=O)O)C(=O)O)NC(=O)[C@H](C)NC(=O)[C@H](C)NC(=O)[C@H](CCC(N)=O)NC(=O)CNC(=O)[C@H](CCC(=O)O)NC(=O)[C@H](CC(C)C)NC(=O)[C@H](Cc1ccc(O)cc1)NC(=O)[C@H](CO)NC(=O)[C@H](CO)NC(=O)[C@@H](NC(=O)[C@H](CC(=O)O)NC(=O)[C@H](CO)NC(=O)[C@@H](NC(=O)[C@H](Cc1ccccc1)NC(=O)[C@@H](NC(=O)CNC(=O)[C@H](CCC(=O)O)NC(=O)C(C)(C)NC(=O)[C@@H](N)Cc1cnc[nH]1)[C@@H](C)O)[C@@H](C)O)C(C)C)C(=O)N[C@@H](C)C(=O)N[C@@H](Cc1c[nH]c2ccccc12)C(=O)N[C@@H](CC(C)C)C(=O)N[C@H](C(=O)N[C@@H](CCCNC(=N)N)C(=O)NCC(=O)N[C@@H](CCCNC(=N)N)C(=O)NCC(=O)O)C(C)C [Control (semaglutide only), semaglutide] | –
